Source: patent US8173635B2, “Kinase inhibitors” (Vertex Pharmaceuticals Incorporated, priority 2007, dated 2012)

Experiments:
Type in all cases: biochemical
[1] = molecular target: PKC alpha kinase (Homo sapiens, UniProt P17252); test: PKC alpha kinase inhibition, coupled-enzyme NADH absorbance assay (Ki); conditions: 130 μM ATP, 4.5 nM PKC alpha, 30° C.; read-out: Ki PKC alpha
Description: An assay buffer solution was prepared which consisted of 100 mM HEPES (pH 7.5), 10 mM MgCl2, 25 mM NaCl, 0.1 mM EDTA, 100 μM CaCl2 and 0.01% Brij. […] To 16 μL of this enzyme buffer, in a 384 well plate, was added 1 μL of VRT stock solution in DMSO. The mixture was allowed to equilibrate for 10 mins at 30° C. The enzyme reaction was initiated by the addition of 16 μL stock ATP solution prepared in assay buffer to a final assay concentration of 130 μM. Initial rate data was determined from the rate of change of absorbance at 340 nm (corresponding to stoichiometric consumption of NADH) using a Molecular Devices Spectramax plate reader (Sunnyvale, Calif.) over 15 mins at 30° C. […] Ki values were calculated from initial rate data by non-linear regression using the Prism software package (Prism 4.0a, Graphpad Software, San Diego, Calif.).

[2] = molecular target: PKC theta kinase (Homo sapiens, UniProt Q04759); test: PKC theta kinase inhibition, coupled-enzyme NADH absorbance assay (Ki); conditions: 240 μM ATP, 18 nM PKC theta, 30° C.; read-out: Ki PKC theta
Sequence of PKC theta kinase (Q04759 whole entry): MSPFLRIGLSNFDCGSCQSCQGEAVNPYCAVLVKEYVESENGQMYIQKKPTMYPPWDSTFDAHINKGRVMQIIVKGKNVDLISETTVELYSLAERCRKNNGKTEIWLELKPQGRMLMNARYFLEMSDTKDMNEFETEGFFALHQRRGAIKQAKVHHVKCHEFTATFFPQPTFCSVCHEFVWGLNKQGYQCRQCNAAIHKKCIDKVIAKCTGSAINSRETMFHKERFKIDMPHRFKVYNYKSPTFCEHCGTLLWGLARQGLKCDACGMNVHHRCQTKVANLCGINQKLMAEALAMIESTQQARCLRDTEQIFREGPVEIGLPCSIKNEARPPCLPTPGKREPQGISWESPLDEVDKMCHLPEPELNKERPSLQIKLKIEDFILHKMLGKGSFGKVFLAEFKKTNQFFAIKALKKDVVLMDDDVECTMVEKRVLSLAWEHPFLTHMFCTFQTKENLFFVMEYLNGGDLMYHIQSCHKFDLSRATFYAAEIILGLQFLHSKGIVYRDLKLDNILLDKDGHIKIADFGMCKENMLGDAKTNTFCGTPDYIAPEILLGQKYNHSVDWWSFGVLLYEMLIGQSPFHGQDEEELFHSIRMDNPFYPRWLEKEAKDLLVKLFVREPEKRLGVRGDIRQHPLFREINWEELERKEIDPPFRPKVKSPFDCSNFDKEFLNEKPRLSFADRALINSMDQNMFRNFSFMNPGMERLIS
Description: (§1) An assay buffer solution was prepared which consisted of 100 mM HEPES (pH 7.5), 10 mM MgCl2, 25 mM NaCl, 0.1 mM EDTA and 0.01% Brij. […] To 60 μL of this enzyme buffer, in a 384 well plate, was added 2 μL of VRT stock solution in DMSO. The mixture was allowed to equilibrate for 10 mins at 30° C. […] Ki values were calculated from initial rate data by non-linear regression using the Prism software package (Prism 4.0a, Graphpad Software, San Diego, Calif.).

[3] = molecular target: PKC delta kinase (Homo sapiens, UniProt Q05655); test: PKC delta kinase inhibition, coupled-enzyme NADH absorbance assay (Ki); conditions: 150 μM ATP, 46 nM PKC delta, 30° C.; read-out: Ki PKC delta
Sequence of PKC delta kinase (Q05655 whole entry): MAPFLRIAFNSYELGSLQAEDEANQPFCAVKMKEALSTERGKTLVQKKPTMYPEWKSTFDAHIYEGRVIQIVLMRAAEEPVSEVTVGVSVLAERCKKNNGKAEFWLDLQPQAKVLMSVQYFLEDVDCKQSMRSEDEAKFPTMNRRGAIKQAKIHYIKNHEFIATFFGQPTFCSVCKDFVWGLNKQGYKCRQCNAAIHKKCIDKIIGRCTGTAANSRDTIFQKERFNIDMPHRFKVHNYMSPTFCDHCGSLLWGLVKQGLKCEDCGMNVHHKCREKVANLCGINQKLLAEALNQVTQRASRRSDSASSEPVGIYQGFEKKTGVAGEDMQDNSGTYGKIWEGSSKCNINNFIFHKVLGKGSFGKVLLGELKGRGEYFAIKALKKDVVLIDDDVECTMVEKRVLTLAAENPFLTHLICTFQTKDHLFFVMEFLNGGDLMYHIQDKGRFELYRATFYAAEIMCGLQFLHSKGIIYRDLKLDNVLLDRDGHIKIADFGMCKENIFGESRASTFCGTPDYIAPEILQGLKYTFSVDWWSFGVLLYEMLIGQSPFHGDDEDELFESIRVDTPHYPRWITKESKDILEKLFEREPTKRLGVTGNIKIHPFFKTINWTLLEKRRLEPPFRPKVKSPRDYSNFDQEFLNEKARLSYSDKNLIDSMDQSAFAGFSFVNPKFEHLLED
Description: as §1, with “To 16” for “To 60”, “added 1” for “added 2”

Row | SMILES | Ki [1] [nM] | Ki [2] [nM] | Ki [3] [nM]
1 | CCC(C)(C#N)c1cc(C)cc(-c2ccnc3[nH]ncc23)c1 (stereo not drawn) [Compound 89] | < 2800 | < 500 | < 2800
2 | CCC(C)(CN)c1cccc(-c2ccnc3[nH]ncc23)c1 (stereo not drawn) [Compound 41] | < 500 | < 50 | < 50
3 | CCCc1cc(-c2ccnc3[nH]ncc23)cc(C(C)(C)C#N)c1 [Compound 57] | < 2800 | < 50 | > 2800
4 | CCC(O)c1cccc(-c2ccnc3[nH]ncc23)c1 (stereo not drawn) [Compound 77] | > 2800 | < 2800 | > 2800
5 | CC(C)(C)c1n[nH]c2nccc(-c3cc(Br)cc(C(C)(C)C#N)c3)c12 [Compound 112] | > 1200 | > 700 | > 2000
6 | CCCc1cc(-c2ccnc3[nH]ncc23)cc(C2(CC#N)CCC2)c1 [Compound 125] | > 1200 | < 500 | > 2000
7 | CCC(C)(CN)c1cc(-c2ccnc3[nH]ncc23)cc(C(C)F)c1 (stereo not drawn) [Compound 159] | < 2800 | < 50 | < 2800
8 | N#CC1(c2cccc(-c3ccnc4[nH]ncc34)c2)CCC1 [Compound 73] | < 2800 | < 500 | < 2800
9 | NCC1(c2cc(F)cc(-c3ccnc4[nH]nc(Cl)c34)c2)CCC1 [Compound 255] | < 50 | < 50 | < 50
10 | CC(C#N)(Cc1ccccc1)c1cccc(-c2ccnc3[nH]ncc23)c1 (stereo not drawn) [Compound 100] | > 390 | > 210 | > 2800
11 | CCC(C)(CN)c1cc(CCCO)cc(-c2ccnc3[nH]ncc23)c1 (stereo not drawn) [Compound 156] | < 500 | < 50 | < 2800
12 | NCC1(c2cc(F)cc(-c3ccnc4[nH]nc(C(F)(F)F)c34)c2)CCC1 [Compound 274] | < 50 | < 50 | < 500
13 | NCC1(c2cc(F)cc(-c3ccnc4[nH]ncc34)c2)CCC1 [Compound 188] | < 500 | < 50 | < 2800
14 | CCC(F)c1cc(-c2ccnc3[nH]ncc23)cc(C(C)(C#N)CC)c1 (stereo not drawn) [Compound 106] | < 2800 | < 500 | > 2000
15 | CC(C#N)(Cc1cccnc1)c1cccc(-c2ccnc3[nH]ncc23)c1 (stereo not drawn) [Compound 116] | > 1200 | > 700 | > 2000
16 | CC(CN)(Cc1cscn1)c1cccc(-c2ccnc3[nH]ncc23)c1 (stereo not drawn) [Compound 170] | < 2800 | < 50 | < 2800
17 | CNCC(F)(F)c1cc(-c2ccnc3[nH]ncc23)cc(C2(C#N)CC2)c1 [Compound 123] | < 2800 | < 50 | < 2800
18 | C1=C(c2cccc(-c3ccnc4[nH]ncc34)c2)CCNC1 [Compound 216] | < 2800 | < 500 | < 2800
19 | N#CC1(c2cc(CCO)cc(-c3ccnc4[nH]ncc34)c2)CC1 [Compound 114] | > 1200 | < 50 | > 2000
20 | CCC(C)(CNC)c1cccc(-c2ccnc3[nH]ncc23)c1 (stereo not drawn) [Compound 141] | < 500 | < 50 | < 500
21 | CCC(C)(C#N)c1cc(-c2ccnc3[nH]ncc23)cc(C(C)(F)F)c1 (stereo not drawn) [Compound 111] | < 500 | < 50 | < 2800
22 | C=CCc1cc(-c2ccnc3[nH]ncc23)cc(C(C)(C)C#N)c1 [Compound 67] | < 2800 | < 500 | > 2800
23 | CC(C)(C#N)c1cc(CN)cc(-c2ccnc3[nH]ncc23)c1 [Compound 76] | > 2800 | < 2800 | > 2800
24 | CCCC(C)(CN)c1cccc(-c2ccnc3[nH]ncc23)c1 (stereo not drawn) [Compound 51] | < 500 | < 50 | < 50

More lines, now with the values ahead:

Row | Ki [1] [nM] | Ki [2] [nM] | Ki [3] [nM] | SMILES
25 | < 500 | < 50 | < 500 | CC(CN)(CC1CCOCC1)c1cccc(-c2ccnc3[nH]ncc23)c1 (stereo not drawn) [Compound 179]
26 | < 500 | < 500 | > 1200 | C=CCC1(c2cc(C)cc(-c3ccnc4[nH]ncc34)c2)CNC(=O)O1 (stereo not drawn) [Compound 325]
27 | > 1200 | < 500 | > 1200 | CCC(N)c1cccc(-c2ccnc3[nH]ncc23)c1 (stereo not drawn) [Compound 245]
28 | > 1200 | > 700 | > 1200 | CCc1n[nH]c2nccc(-c3cccc(CN)c3)c12 [Compound 270]
29 | < 500 | < 50 | < 50 | CCC(CN)c1cccc(-c2ccnc3[nH]nc(C(F)(F)F)c23)c1 (stereo not drawn) [Compound 281]
30 | > 1200 | > 700 | > 1200 | CC#CC1(c2cc(C)cc(-c3ccnc4[nH]nc(C(F)(F)F)c34)c2)CNC(=O)O1 (stereo not drawn) [Compound 295]
31 | < 2800 | < 500 | < 2800 | CC#CC[C@@](C)(CN)c1cccc(-c2ccnc3[nH]ncc23)c1 [Compound 186]
32 | > 1200 | < 500 | < 500 | NCC1CCc2ccc(-c3ccnc4[nH]ncc34)cc21 (stereo not drawn) [Compound 308]
33 | < 500 | < 50 | < 500 | COc1cccc(CC(C)(CN)c2cccc(-c3ccnc4[nH]ncc34)c2)c1 (stereo not drawn) [Compound 173]
34 | > 1200 | < 500 | > 2000 | CC(CN)(Cc1ccccn1)c1cccc(-c2ccnc3[nH]ncc23)c1 (stereo not drawn) [Compound 175]
35 | < 50 | < 50 | < 50 | CCc1n[nH]c2nccc(-c3cccc(C(C)(CC)CN)c3)c12 (stereo not drawn) [Compound 264]
36 | < 500 | < 500 | < 500 | C=CC1(c2cccc(-c3ccnc4[nH]ncc34)c2)CCNC1 (stereo not drawn) [Compound 193, 4-(3-(3-Vinylpyrrolidin-3-yl)phenyl)-1H-pyrazolo[3,4-b]pyridine]
37 | < 500 | < 50 | < 2800 | COC(CN)c1cc(C)cc(-c2ccnc3[nH]nc(C(F)(F)F)c23)c1 (stereo not drawn) [Compound 297]
38 | < 500 | < 50 | > 1200 | CCC1(c2cc(C)cc(-c3ccnc4[nH]nc(C(F)(F)F)c34)c2)CNC(=S)O1 (stereo not drawn) [Compound 296]
39 | < 50 | < 50 | < 50 | CCC(C)(CN)c1cc(F)cc(-c2ccnc3[nH]nc(C(F)(F)F)c23)c1 (stereo not drawn) [Compound 277]
40 | < 500 | < 50 | < 500 | CCC1(c2cccc(-c3ccnc4[nH]ncc34)c2)CCNC1 (stereo not drawn) [Compound 194]
41 | < 500 | < 500 | < 2800 | Cc1cc(-c2ccnc3[nH]ncc23)cc(C(N)C2CC2(F)F)c1 (stereo not drawn) [Compound 250]
42 | < 500 | < 50 | < 2800 | N#CC1(c2cc(CCCN)cc(-c3ccnc4[nH]nc(C(F)(F)F)c34)c2)CC1 [Compound 283, 1-(3-(3-aminopropyl)-5-(3-(trifluoromethyl)-1H-pyrazolo[3,4-b]pyridin-4-yl)phenyl)cyclopropanecarbonitrile]
43 | > 1200 | < 500 | > 1200 | CCCCNC(CC)c1cccc(-c2ccnc3[nH]ncc23)c1 (stereo not drawn) [Compound 247]
44 | < 500 | < 50 | < 500 | FC(F)CC1(c2cccc(-c3ccnc4[nH]ncc34)c2)CNC1 [Compound 191, 4-(3-(3-(2,2-Difluoroethyl)azetidin-3-yl)phenyl)-1H-pyrazolo[3,4-b]pyridine]
45 | < 500 | < 50 | < 2800 | N#C[C@]1(c2cccc(-c3ccnc4[nH]ncc34)c2)C[C@@H](N)C1 [Compound 249]
46 | > 1200 | > 700 | > 2000 | Cc1cnc2[nH]ncc2c1-c1cccc(C(C)(C)C#N)c1 [Compound 219]
47 | < 500 | < 50 | < 500 | C/C=C\C1(c2cccc(-c3ccnc4[nH]ncc34)c2)CCNC1 (stereo not drawn) [Compound 197]
48 | < 500 | < 50 | < 500 | Cc1cc(-c2ccnc3[nH]nc(C4CC4)c23)cc(C2(CN)CC2)c1 [Compound 268]
49 | < 50 | < 50 | < 50 | CCC(C)(CN)c1cccc(-c2ccnc3[nH]nc(C)c23)c1 (stereo not drawn) [Compound 212, 2-methyl-2-(3-(3-methyl-1H-pyrazolo[3,4-b]pyridin-4-yl)phenyl)butan-1-amine]
50 | < 500 | < 50 | < 2800 | CCC1(c2cc(C)cc(-c3ccnc4[nH]ncc34)c2)CNC(=O)O1 (stereo not drawn) [Compound 228]
